Assay results from patent publication US20060074101A1, “Method of treating post operative nausea and vomiting” (Helsinn Healthcare SA, priority 2003, published 2006).

Assays:
[1] = tested on: postoperative vomiting and nausea (PONV); experiment: Oral administration of palonosetron for prophylaxis of PONV (elective laparoscopic surgery patients); type: in vivo, human; conditions: for % no EE / % with CR: 4 hours after recovery; for % no EE / % with CR / % no EE (no emetic episodes) / % with CC (complete control) / % with CR (complete response): evaluable patients; for % no EE (no emetic episodes) / % with CC (complete control) / % with CR (complete response): 24 hours after recovery; for Nausea Mean Score / No Nausea (patients) / Severe Nausea (patients): during 24 hours after recovery; for patients free from emetic episodes: first 4 hours of recovery
Experimental: A study was performed to test the efficacy, safety, and pharmacokinetics of five doses of orally administered palonosetron for the prophylaxis of postoperative vomiting and nausea. Three hundred fifty-one patients, 308 women and 43 men, 19-75 years of age, scheduled for elective laparoscopic surgical procedures and having an ASA physical status rating of I and II were enrolled in this study. All patients received balanced general anesthesia, including […] plus an opiate. Doses of palonosetron were calculated based on thee patient's body weight at the screening visit, rounded to the nearest kilogram. Each dose was diluted to a total volume of 25 mL by adding sterile water to the dosing cup. The dosing cup was rinsed with 25 mL of sterile water and the patient also swallowed this 25 mL. Study medication was administered 2 hours prior to scheduled induction of anesthesia for surgeries requiring nasogastric suction and 1 hour prior to scheduled induction of anesthesia for all other laparoscopic surgical procedures.

[2] = tested on: postoperative vomiting and nausea (PONV); experiment: Prevention of PONV using a single intravenous dose of palonosetron (hysterectomy patients); type: in vivo, human; conditions: for patients who had received rescue therapy: by 24 hours; for Time to Failure (hr) (median): emesis or rescue medication, whichever first; for patients who experienced one or more emetic episodes: at 12 hours; for patients who had experienced an emetic episode: at 24 hours; for patients who experienced an emetic episode: two hours postrecovery; for Nausea Mean Score / No Nausea (patients) / Severe Nausea (patients): during 24 hours after recovery
Experimental: A study was conducted to test the efficacy and safety of five doses of intravenously administered palonosetron for the prophylaxis of postoperative vomiting and nausea. A total of 381 women, 24-80 years of age, scheduled for abdominal or vaginal hysterectomy and having ASA physical status rating of I or II were enrolled in this study. All patients received balanced general anesthesia, including N2O plus an opiate. Study medication, palonosetron, was administered over 30 seconds through a peripheral IV line at skin closure at the conclusion of the surgical procedure.

[3] = Stability of palonosetron in solution; type: physicochemical; conditions: dependence on concentration
[4] = 0.1 μg/kg IV, 24 hours after recovery, evaluable patients
[5] = 0.3 μg/kg IV, 4 hours after recovery
[6] = 0.3 μg/kg IV, 24 hours after recovery, evaluable patients
[7] = 1 μg/kg IV, 4 hours after recovery
[8] = 1.0 μg/kg IV, 24 hours after recovery, evaluable patients
[9] = 3.0 μg/kg IV, 24 hours after recovery, evaluable patients
[10] = 30 μg/kg IV, 4 hours after recovery
[11] = 30 μg/kg IV, 24 hours after recovery, evaluable patients

Cl.O=C1c2cccc3c2[C@H](CCC3)CN1[C@@H]1CN2CCC1CC2 [palonosetron, (3aS)-2,3,3a,4,5,6-Hexahydro-2-[(S)-1-Azabicyclo[2.2.2]oct-3-yl]2,3,3a,4,5,6-hexahydro-1-oxo-1Hbenz[de]isoquinoline]
% no EE ([1]; 0.1 μg/kg oral): 73% | % with CR ([1]; 0.1 μg/kg oral): 60% | nausea, position of treatment group relative to other groups ([1]; 0.3 μg/kg oral, 24-hour period following recovery): intermediate to the placebo group and the other palonosetron treatment groups | % no EE ([1]; 0.3 μg/kg oral): 72% | % with CR ([1]; 0.3 μg/kg oral): 61% | % no EE (no emetic episodes) ([1]; 0.3 μg/kg oral): 50% | % with CC (complete control) ([1]; 0.3 μg/kg oral): 37% | % with CR (complete response) ([1]; 0.3 μg/kg oral): 37% | Nausea Mean Score ([1]; 0.3 μg/kg oral): 0.83 | No Nausea (patients) ([1]; 0.3 μg/kg oral): 44.8% | Severe Nausea (patients) ([1]; 0.3 μg/kg oral): 3.4% | % no EE ([1]; 1 μg/kg oral): 81% | % with CR ([1]; 1 μg/kg oral): 70% | % no EE (no emetic episodes) ([1]; 1 μg/kg oral): 67% | % with CC (complete control) ([1]; 1 μg/kg oral): 58% | % with CR (complete response) ([1]; 1 μg/kg oral): 58% | Nausea Mean Score ([1]; 1 μg/kg oral): 0.64 | No Nausea (patients) ([1]; 1 μg/kg oral): 52.8% | Severe Nausea (patients) ([1]; 1 μg/kg oral): 3.8% | patients free from emetic episodes ([1]; 1.0 μg/kg oral): 72% | % no EE ([1]; 3 μg/kg oral): 82% | % with CR ([1]; 3 μg/kg oral): 76% | % no EE (no emetic episodes) ([1]; 3 μg/kg oral): 63% | % with CC (complete control) ([1]; 3 μg/kg oral): 52% | % with CR (complete response) ([1]; 3 μg/kg oral): 52% | Nausea Mean Score ([1]; 3 μg/kg oral): 0.65 | No Nausea (patients) ([1]; 3 μg/kg oral): 55.8% | Severe Nausea (patients) ([1]; 3 μg/kg oral): 7.7% | patients free from emetic episodes ([1]; 3 μg/kg oral): 81% | % no EE (no emetic episodes) ([1]; 10 μg/kg oral): 71% | % with CC (complete control) ([1]; 10 μg/kg oral): 57% | % with CR (complete response) ([1]; 10 μg/kg oral): 59% | Nausea Mean Score ([1]; 10 μg/kg oral): 0.71 | No Nausea (patients) ([1]; 10 μg/kg oral): 51.1% | Severe Nausea (patients) ([1]; 10 μg/kg oral): 2.2% | patients free from emetic episodes ([1]; 10 μg/kg oral): 82% | % no EE ([1]; 30 μg/kg oral): 69% | % with CR ([1]; 30 μg/kg oral): 63% | % no EE (no emetic episodes) ([1]; 30 μg/kg oral): 65% | % with CC (complete control) ([1]; 30 μg/kg oral): 51% | % with CR (complete response) ([1]; 30 μg/kg oral): 53% | Nausea Mean Score ([1]; 30 μg/kg oral): 0.79 | No Nausea (patients) ([1]; 30 μg/kg oral): 44.8% | Severe Nausea (patients) ([1]; 30 μg/kg oral): 5.2% | nausea reported versus placebo ([1]; 1, 3, 10, and 30 μg/kg oral, 24-hour period following recovery): statistically significantly less nausea | dose at which clinical response reached a plateau ([1]; orally administered): 1 µg/kg | Duration of Effect: Emetic Episode (25th Percentile) ([2]; 0.1 μg/kg IV): 2.2 h | Duration of Effect: Emetic Episode, second line of values (percentile not given) ([2]; 0.1 μg/kg IV): >24 h | Duration of Effect: Rescue (50th percentile) ([2]; 0.1 μg/kg IV): 8.5 h | % with CR ([2]; 0.1 μg/kg IV, 4 hours after recovery): 57% | % no EE [2, 4]: 55% | % with CC (complete control) [2, 4]: 34% | % with CR (complete response) [2, 4]: 34% | patients who had received rescue therapy ([2]; 0.1 μg/kg IV): 59.6% | Time to Failure (hr) (median) ([2]; 0.1 μg/kg IV): 6.0 h | Duration of Effect: Emetic Episode (25th Percentile) ([2]; 0.3 μg/kg IV): 8.4 h | Duration of Effect: Emetic Episode, second line of values (percentile not given) ([2]; 0.3 μg/kg IV): >24 h | Duration of Effect: Rescue (50th percentile) ([2]; 0.3 μg/kg IV): 9.9 h | % no EE [2, 5]: 90% | % with CR [2, 5]: 72% | % no EE [2, 6]: 60% | % with CC (complete control) [2, 6]: 33% | % with CR (complete response) [2, 6]: 34% | patients who experienced one or more emetic episodes ([2]; 0.3 μg/kg IV): 29.9% | patients who had experienced an emetic episode ([2]; 0.3 μg/kg IV): 40.3% | patients who had received rescue therapy ([2]; 0.3 μg/kg IV): 59.7% | Time to Failure (hr) (median) ([2]; 0.3 μg/kg IV): 9.6 h | patients who experienced an emetic episode ([2]; 0.3 μg/kg IV): 10.4% | Duration of Effect: Emetic Episode (25th Percentile) ([2]; 1 μg/kg IV): 21.8 h | Duration of Effect: Emetic Episode, second line of values (percentile not given) ([2]; 1 μg/kg IV): >24 h | Duration of Effect: Rescue (50th percentile) ([2]; 1 μg/kg IV): 21.3 h | % no EE [2, 7]: 92% | % with CR [2, 7]: 69% | % no EE [2, 8]: 73% | % with CC (complete control) [2, 8]: 44% | % with CR (complete response) [2, 8]: 44% | patients who experienced one or more emetic episodes ([2]; 1 μg/kg IV): 14.5% | patients who had experienced an emetic episode ([2]; 1 μg/kg IV): 27.4% | patients who had received rescue therapy ([2]; 1 μg/kg IV): 51.6% | Nausea Mean Score ([2]; 1 μg/kg IV): 0.82 | No Nausea (patients) ([2]; 1 μg/kg IV): 36.1% | Severe Nausea (patients) ([2]; 1 μg/kg IV): 3.3% | Time to Failure (hr) (median) ([2]; 1.0 μg/kg IV): 19.5 h | patients who experienced an emetic episode ([2]; 1 μg/kg IV): 6.5% | nausea reported versus placebo ([2]; 1 μg/kg, 3 μg/kg, and 30 μg/kg IV, 24-hour period following recovery): statistically significantly less nausea | Duration of Effect: Emetic Episode (25th Percentile) ([2]; 3 μg/kg IV): 4.9 h | Duration of Effect: Emetic Episode, second line of values (percentile not given) ([2]; 3 μg/kg IV): >24 h | Duration of Effect: Rescue (50th percentile) ([2]; 3 μg/kg IV): 8.0 h | % with CR ([2]; 3 μg/kg IV, 4 hours after recovery): 66% | % no EE [2, 9]: 61% | % with CC (complete control) [2, 9]: 30% | % with CR (complete response) [2, 9]: 30% | Nausea Mean Score ([2]; 3 μg/kg IV): 0.92 | No Nausea (patients) ([2]; 3 μg/kg IV): 34.8% | Severe Nausea (patients) ([2]; 3 μg/kg IV): 3.0% | Time to Failure (hr) (median) ([2]; 3.0 μg/kg IV): 7.3 h | Duration of Effect: Emetic Episode (25th Percentile) ([2]; 30 μg/kg IV): >24 h | Duration of Effect: Emetic Episode, second line of values (percentile not given) ([2]; 30 μg/kg IV): >24 h | Duration of Effect: Rescue (50th percentile) ([2]; 30 μg/kg IV): 23.2 h | % no EE [2, 10]: 94% | % with CR [2, 10]: 66% | % no EE [2, 11]: 76% | % with CC (complete control) [2, 11]: 45% | % with CR (complete response) [2, 11]: 45% | patients who experienced one or more emetic episodes ([2]; 30 μg/kg IV): 13.4% | patients who had experienced an emetic episode ([2]; 30 μg/kg IV): 23.9% | patients who had received rescue therapy ([2]; 30 μg/kg IV): 50.7% | Nausea Mean Score ([2]; 30 μg/kg IV): 0.66 | No Nausea (patients) ([2]; 30 μg/kg IV): 47.8% | Time to Failure (hr) (median) ([2]; 30 μg/kg IV): 15.0 h | patients who experienced an emetic episode ([2]; 30 μg/kg IV): 4.5% | patients free from emetic episodes ([2]; 0.3-, 1-, and 30-μg/kg IV groups (range), first 4 hours of recovery): 90-94% | dose at which the clinical response substantially plateaus ([2]; administered intravenously or orally): about 1 microgram/kilogram of body weight | patients who received rescue medication ([2]; palonosetron-treated patients IV (range over dose groups), at 8 hours): 35.5-50.7% | patients who received rescue therapy ([2]; palonosetron-treated patients IV (range over dose groups), within the first 2 hours): 21-31% | stability in solution [3]: stability of palonosetron increases in solution as its concentration decreases
